Active and inactive are the calls of the source. The rule behind the calls is not given here. A value given as a limit tells only on which side of the number the result lay.

Consider one molecule from ChEMBL document CHEMBL4840323, “Discovery of an Orally Bioavailable Small-Molecule Inhibitor for the β-Catenin/B-Cell Lymphoma 9 Protein-Protein Interaction” (J Med Chem, 2021).

The species named for data set [1] is Mus musculus. The following applies: dose 90.0 mg/kg, time 5.0 day.
The test system of a further data set is 4013. Put plainly: Antitumor activity against patient-derived 4013 cells orthotopically xenografted in SCID-Beige mouse assessed as reduction in tumor weight at 90 mg/kg, po via gavage for 5 days. The data set is classed as functional, organism-based. The following applies: Homo sapiens, time 5.0 day.
The test system of data set [2] is MDA-MB-231. The experiment in a line: Antiinvasive activity against human MDA-MB-231 cells cultured as 3D-spheroids measured after 6 days by imaging analysis. The data set is classed as functional, cell-based. To be noted: dose 5-40 µM, time 6.0 day.
The subject of data set [3] is MDA-MB-468. Put plainly: Inhibition of Wnt/beta-catenin transactivation signalling in Wnt3a stimulated human MDA-MB-468 cells assessed as relative activity at 6.25 uM measured after 24 hrs by TOPFlash reporter gene assay relative to control. The data set is classed as cell-based. The arrangement: scale not given: the % may be the effect or the level left.
The next data set concerns SW480. The experiment in a line: Inhibition of Wnt/beta-catenin transactivation signalling in human SW480 cells assessed as relative activity at 1.56 uM measured after 24 hrs by TOPFlash reporter gene assay relative to control. The data set is classed as cell-based. The arrangement: scale not given: the % may be the effect or the level left.
For data set [4], the system named is MDA-MB-231. Put plainly: Downregulation of HPRT mRNA expression in Wnt3a stimulated human MDA-MB-231 cells at 10 to 40 uM measured after 24 hrs by qRT-PCR analysis. The following applies: dose 10-40 µM.
For data set [5], the system named is MDA-MB-231. The experiment in a line: Induction of apoptosis in human MDA-MB-231 cells assessed as late apoptotic cells at 40 uM measured after 72 hrs by annexinV-FITC/propidium iodide staining based flow cytometry (reference value: 8.8 %). The data set is classed as functional.
The species entered for data set [6] is Mus musculus. The following applies: dose 90.0 mg/kg, time 5.0 day. This is another data set of the same source.
The nature of data set [7]: Aqueous solubility of the compound. The data set is classed as physicochemical. The following applies: buffer.
Data set [8] deals with MDA-MB-468. Put plainly: Induction of apoptosis in human MDA-MB-468 cells assessed as late apoptotic cells at 40 uM measured after 72 hrs by annexinV-FITC/propidium iodide staining based flow cytometry (reference value: 13.9 %). The data set is classed as functional.
The nature of data set [9]: Solubility of the compound in 0.9% NaCl at 2 mg/ml. The data set is classed as physicochemical.
Data set [10] has as its system MDA-MB-231. Put plainly: Antiproliferative activity against human MDA-MB-231 cells harboring empty pcDNA3.1 vector at 20 uM measured after 72 hrs by MTS assay. The data set is classed as functional, cell-based.
Data set [11] is filed under the species Mus musculus. The following applies: dose 90.0 mg/kg, time 5.0 day. This is another data set of the same source.
Data set [12] can be described thus: Half life in C57BL/6 mouse at 1 mg/kg, iv measured after 5 mins by LC-MS/MS analysis. The data set is classed as ADME, organism-based. The following applies: in vivo.
Data set [13] is described as follows: Oral bioavailability in C57BL/6 mouse at 20 mg/kg measured up to 24 hrs by LC-MS/MS analysis. The data set is classed as ADME, organism-based. The following applies: in vivo.
For data set [14], the system named is MDA-MB-468. Put plainly: Induction of apoptosis in human MDA-MB-468 cells assessed as early apoptotic cells at 10 uM measured after 72 hrs by annexinV-FITC/propidium iodide staining based flow cytometry (reference value: 28.9 %). The data set is classed as functional.
Data set [15] is described as follows: Toxicity in SCID-Beige mouse orthotopically xenografted with patient-derived 4013 cells at 90 mg/kg, po via gavage for 5 days. The data set is classed as organism-based. To be noted: in vivo, 120 h, time 5 day.
Data set [16] relates to MDA-MB-231. The experiment in a line: Induction of apoptosis in human MDA-MB-231 cells assessed as late apoptotic cells at 20 uM measured after 72 hrs by annexinV-FITC/propidium iodide staining based flow cytometry (reference value: 8.8 %). The data set is classed as functional.
For data set [17], the species on record is Mus musculus. The following applies: dose 90.0 mg/kg, time 5.0 day. The source holds these as a separate data set.
The test system of data set [18] is MDA-MB-468. Put plainly: Induction of apoptosis in human MDA-MB-468 cells assessed as early apoptotic cells at 40 uM measured after 72 hrs by annexinV-FITC/propidium iodide staining based flow cytometry (reference value: 28.9 %). The data set is classed as functional.
Data set [19] deals with MDA-MB-231. The experiment in a line: Induction of apoptosis in human MDA-MB-231 cells assessed as early apoptotic cells at 10 uM measured after 72 hrs by annexinV-FITC/propidium iodide staining based flow cytometry (reference value: 5.3 %). The data set is classed as functional.

As to `CC(C)(Oc1cccc(N2CCC[C@@H](C(=O)N(Cc3ccc(-c4cn[nH]c4)cc3)C3CC3)C2)c1)C(=O)N1CCNCC1.Cl`, the inhibition result in the data set listed under Mus musculus [1], in the data set filed under Mus musculus [6], in the data set listed under Mus musculus [11] and in the data set filed under Mus musculus [17] was “Active” each time. For the same molecule, the result in the data set with 4013 and with MDA-MB-231 [4] was inactive. Besides, the Activity entry is “Dose-Dependent Effect” in the data set with MDA-MB-231 [2]; 102% in the data set on MDA-MB-468 [3]; 95% with SW480; 18.9% with MDA-MB-231 [5]; 33.4% in the data set with MDA-MB-468 [8]; 17.5% in the data set with MDA-MB-468 [14]. The Activity entry is recorded as “Toxic” in [15], 23% in the data set with MDA-MB-231 [16], 53.5% with MDA-MB-468 [18] and 5.4% in the data set on MDA-MB-231 [19]. The solubility was more than 3000 µM in data set [7] and “Soluble” in data set [9]. The outcome in the data set on MDA-MB-231 [10] was Active. This molecule also had a t1/2 in [12] of 3.51 h. In addition, the F in [13] is recorded as 83%.
